Marks after values point to notes of the source that are not given here. Square brackets hold non-standard residues; d marks the D form. Peptide text beside a SMILES is read from it. * marks the point of attachment. Phe(4-Cl) = N[C@@H](Cc1ccc(Cl)cc1)C(=O)O; Dip = N[C@H](C(=O)O)C(c1ccccc1)c1ccccc1; hArg = N=C(N)NCCCC[C@H](N)C(=O)O; Decanoyl = CCCCCCCCCC(=O)*; Nle = CCCC[C@H](N)C(=O)O; Octanoyl = CCCCCCCC(=O)*; Abu = CC[C@H](N)C(=O)O; PhAc = O=C(Cc1ccccc1)*
What was measured:
[1] = system: hGH-RH(1-29)NH2 induced GH release; assay: Inhibition of GH release in superfused rat pituitary system; assay type: cell-based; settings: for GH response (% of control) 0 min / GH response (% of control) 30 min / GH response (% of control) 60 min / GH response (% of control) 90 min / GH response (% of control) 120 min: antagonist 30 nM; for GH response (% of control) 0 min: 1 nM hGH-RH(1-29)NH2 at 0 min; for GH response (% of control) 30 min: 1 nM hGH-RH(1-29)NH2 at 30 min; for GH response (% of control) 60 min: 1 nM hGH-RH(1-29)NH2 at 60 min; for GH response (% of control) 90 min: 1 nM hGH-RH(1-29)NH2 at 90 min; for GH response (% of control) 120 min: 1 nM hGH-RH(1-29)NH2 at 120 min; for endocrine antagonistic potency: inhibition of the GH release stimulated by hGH-RH(1-29)NH2 (in words): general statement, in vitro and in vivo
In short: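 Dispersed rat pituitary cells in superfusion were preincubated 9 min with analog at various concentrations, then stimulated with 1 nM hGH-RH(1-29)NH2 for 3 min, repeated at 30, 60, 90, 120 min to gauge duration. GH measured by double-antibody RIA; net integrated responses expressed as percent of the initial 1 nM GH-RH response.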

[2] = system: GH-RH receptor isoforms on membrane fractions of human PC-3 prostate tumors; assay type: binding; settings: for binding affinities to the tumoral receptors for GH-RH (in words): general statement
Text: Ligand competition assays with ^125I-labeled GH-RH antagonist JV-1-42 were used to determine the binding affinities of GH-RH analogs to the GH-RH receptor isoforms on membrane fractions of human PC-3 prostate tumors. The methods used have been described in detail (Halmos G, Schally A V, Varga J L, Plonowski A, Rekasi Z, Czompoly T, Proc Natl Acad Sci USA 97: 10555-10560, 2000; Halmos G, Schally A V, Czompoly T, Krupa M, Varga J L, Rekasi Z, J Clin Endocrinol Metab 87: 4707-4714, 2002), hereby incorporated by reference. Briefly, radioiodinated derivatives of JV-142 are prepared by the chloramine-T method. PC-3 tumors, grown as xenografts in nude mice, are used to prepare crude membranes. PC-3 membrane homogenates are incubated with [^125I]JV-142 and increasing concentrations (10^−12 to 10^−6 M) of nonradioactive antagonist peptides as competitors. The pellet is separated by centrifugation and counted for radioactivity in a gamma-counter. The final binding affinities are estimated by K1 (dissociation constant of the inhibitor-receptor complex) and are determined by the Ligand PC and McPherson computer programs of Munson and Rodbard (P. J. Munson and D. Rodbard, Anal. Biochem. […]: 220-239, 1980). Relative affinities (R.A.) compared to reference peptides such as JV-1-36 or JV-1-38, are calculated as the ratio of K1 of the reference peptide to the K, of the tested GH-RH antagonist.

[3] = system: PC-3 human prostate cancer xenografts; assay: PC-3 xenografts in nude mice, Experiment 3: tumor growth; assay type: in vivo; settings: for antitumor effect on PC-3 tumors (in words): 10 μg/day; for Tumor volume (mm^3) Final / Tumor volume doubling time / Tumor weight / Tumor volume Final (% inhibition) / Tumor weight (% inhibition): 10 μg/day s.c., 28 days; for Tumor volume Final (% inhibition) / Tumor weight (% inhibition): vs control; for Tumor volume (mm^3) Initial: at start of treatment
Experimental: Male nude mice were implanted s.c. with 3 mm^3 pieces of PC-3 human hormone-independent prostate cancer tissue on both flanks. When tumors reached a volume of approximately 65 mm^3, the mice were divided into 7 experimental groups with 8 to 9 animals in each group and received single daily injections for 28 days as follows: 1. Control (vehicle solution); 2. JV-1-38 (10 μg/day s.c.); 3. Peptide 35 (10 μg/day s.c.); 4. Peptide 36 (10 μg/day s.c.); 5. Peptide 37 (10 μd/day s.c.); 6. Peptide 39 (10 μg/day s.c.); 7. Peptide 41 (10 μg/day s.c.). Tumor volumes were measured twice a week. The experiment was ended on day 28 by sacrificing the mice under Isofurane anesthesia. Resulting tumors were cleaned, weighed, and snapfrozen until further analyses. Trunk blood was collected from the abdominal aorta and serum was separated for RIA measurement of IGF-I. Statistical analyses of the measurement results were done by ANOVA followed by Fisher test; data are presented as the means±S.E.

| Compound | GH response (% of control) 0 min [1] | GH response (% of control) 30 min [1] | GH response (% of control) 60 min [1] | GH response (% of control) 90 min [1] | GH response (% of control) 120 min [1] | binding affinities to the tumoral receptors for GH-RH (in words) [2] | antitumor effect on PC-3 tumors (in words) [3] | Tumor volume (mm^3) Final [3] | Tumor volume doubling time [3] | Tumor weight [3] | Tumor volume Final (% inhibition) [3] | Tumor weight (% inhibition) [3] | Tumor volume (mm^3) Initial [3] | endocrine antagonistic potency: inhibition of the GH release stimulated by hGH-RH(1-29)NH2 (in words) [1] | Relative Affinities (R.A.) to membrane receptors on PC-3 human prostate cancers [2] |
| --- | --- | --- | --- | --- | --- | --- | --- | --- | --- | --- | --- | --- | --- | --- | --- |
| [PhAc-Tyr^1, D-Arg^2, Phe(pCl)^6, Har^9, Phe(pNO2)^10, Abu^15, Nle^27, D-Arg^28, Har^29]hGH-RH(1-29)NH2 [Peptide 39] | 63 % of control | 54 % of control | 36 % of control | 37 % of control | 36 % of control | extremely high binding affinities | more potent antitumor effect than reference peptide JV-1-38 | 271 ± 109** mm^3 | 19.6 ± 2.10 days | 247 ± 55.4 mg | (66%) | (65%) | 66.7 ± 11.2 mm^3 |  |  |
| CCCC[C@H](NC(=O)[C@@H](NC(=O)[C@H](CC(=O)O)NC(=O)[C@H](CCC(N)=O)NC(=O)[C@H](CC(C)C)NC(=O)[C@H](CC(C)C)NC(=O)[C@H](CCCCN)NC(=O)[C@H](CCCNC(=N)N)NC(=O)[C@H](C)NC(=O)[C@H](CO)NC(=O)[C@H](CC(C)C)NC(=O)[C@H](CCC(N)=O)NC(=O)[C@H](CC)NC(=O)[C@H](CC(C)C)NC(=O)[C@@H](NC(=O)[C@H](CCCCN)NC(=O)[C@H](CCCNC(=N)N)NC(=O)[C@@H](NC(=O)[C@H](CCCCNC(=N)N)NC(=O)[C@H](CC(N)=O)NC(=O)[C@@H](NC(=O)[C@H](Cc1ccc(Cl)cc1)NC(=O)[C@@H](NC(=O)[C@H](C)NC(=O)[C@H](CC(=O)O)NC(=O)[C@@H](CCCNC(=N)N)NC(=O)[C@H](Cc1ccc(O)cc1)NC(=O)Cc1ccccc1)[C@@H](C)CC)[C@@H](C)O)C(c1ccccc1)c1ccccc1)C(C)C)[C@@H](C)CC)C(=O)N[C@H](CCCNC(=N)N)C(=O)N[C@@H](CCCCNC(=N)N)C(N)=O [Peptide 36, [PhAc-Tyr^1, D-Arg^2, Phe(pCl)^6, Har^9, Dip^10, Abu^15, Nle^27, D-Arg^28, Har^29]hGH-RH(1-29)NH2] (PhAc-Y[dR]DAI[Phe(4-Cl)]TN[hArg][Dip]RKVL[Abu]QLSARKLLQDI[Nle][dR][hArg]-NH2) | 104 % of control | 90 % of control | 112 % of control | 97 % of control | 120 % of control | extremely high binding affinities | more potent antitumor effect than reference peptide JV-1-38 | 214 ± 72.6** mm^3 | 18.7 ± 3.83 days | 361 ± 89.6 mg | (76%) | (48%) | 68.0 ± 11.7 mm^3 |  |  |
| CCCCCCCC(=O)N[C@@H](Cc1ccc(O)cc1)C(=O)N[C@H](CCCNC(=N)N)C(=O)N[C@@H](CC(=O)O)C(=O)N[C@@H](C)C(=O)N[C@H](C(=O)N[C@@H](Cc1ccc(Cl)cc1)C(=O)N[C@H](C(=O)N[C@@H](CC(N)=O)C(=O)N[C@@H](CCCNC(=N)N)C(=O)N[C@@H](Cc1ccc(O)cc1)C(=O)N[C@@H](CCCNC(=N)N)C(=O)N[C@@H](CCCCN)C(=O)N[C@H](C(=O)N[C@@H](CC(C)C)C(=O)N[C@@H](CC)C(=O)N[C@@H](CCC(N)=O)C(=O)N[C@@H](CC(C)C)C(=O)N[C@@H](CO)C(=O)N[C@@H](C)C(=O)N[C@@H](CCCNC(=N)N)C(=O)N[C@@H](CCCCN)C(=O)N[C@@H](CC(C)C)C(=O)N[C@@H](CC(C)C)C(=O)N[C@@H](CCC(N)=O)C(=O)N[C@@H](CC(=O)O)C(=O)N[C@H](C(=O)N[C@@H](CCCC)C(=O)N[C@H](CCCNC(=N)N)C(=O)N[C@@H](CCCCNC(=N)N)C(N)=O)[C@@H](C)CC)C(C)C)[C@@H](C)O)[C@@H](C)CC [Peptide 4, [CH3(CH2)6CO-Tyr^1, D-Arg^2, Phe(pCl)^6, Arg^9, Abu^15, Nle^27, D-Arg^28, Har^29]hGH-RH(1-29)NH2] (Octanoyl-Y[dR]DAI[Phe(4-Cl)]TNRYRKVL[Abu]QLSARKLLQDI[Nle][dR][hArg]-NH2) | 5 % of control | 0 % of control | 12 % of control | 8 % of control | 18 % of control | extremely high binding affinities |  |  |  |  |  |  |  | high endocrine antagonistic potencies | 53 |
| CCCCCCCCCC(=O)N[C@@H](Cc1ccc(O)cc1)C(=O)N[C@H](CCCNC(=N)N)C(=O)N[C@@H](CC(=O)O)C(=O)N[C@@H](C)C(=O)N[C@H](C(=O)N[C@@H](Cc1ccc(Cl)cc1)C(=O)N[C@H](C(=O)N[C@@H](CC(N)=O)C(=O)N[C@@H](CCCNC(=N)N)C(=O)N[C@@H](Cc1ccc(O)cc1)C(=O)N[C@@H](CCCNC(=N)N)C(=O)N[C@@H](CCCCN)C(=O)N[C@H](C(=O)N[C@@H](CC(C)C)C(=O)N[C@@H](CC)C(=O)N[C@@H](CCC(N)=O)C(=O)N[C@@H](CC(C)C)C(=O)N[C@@H](CO)C(=O)N[C@@H](C)C(=O)N[C@@H](CCCNC(=N)N)C(=O)N[C@@H](CCCCN)C(=O)N[C@@H](CC(C)C)C(=O)N[C@@H](CC(C)C)C(=O)N[C@@H](CCC(N)=O)C(=O)N[C@@H](CC(=O)O)C(=O)N[C@H](C(=O)N[C@@H](CCCC)C(=O)N[C@H](CCCNC(=N)N)C(=O)N[C@@H](CCCCNC(=N)N)C(N)=O)[C@@H](C)CC)C(C)C)[C@@H](C)O)[C@@H](C)CC [Peptide 6, [CH3(CH2)8CO-Tyr^1, D-Arg^2, Phe(pCl)^6, Arg^9, Abu^15, Nle^27, D-Arg^28, Har^29]hGH-RH(1-29)NH2] (Decanoyl-Y[dR]DAI[Phe(4-Cl)]TNRYRKVL[Abu]QLSARKLLQDI[Nle][dR][hArg]-NH2) | 56 % of control | 22 % of control | 12 % of control | 15 % of control | 19 % of control |  |  |  |  |  |  |  |  |  | 0.6 |
| CCCC[C@H](NC(=O)[C@@H](NC(=O)[C@H](CC(=O)O)NC(=O)[C@H](CCC(N)=O)NC(=O)[C@H](CC(C)C)NC(=O)[C@H](CC(C)C)NC(=O)[C@H](CCCCN)NC(=O)[C@H](CCCNC(=N)N)NC(=O)[C@H](C)NC(=O)[C@H](CO)NC(=O)[C@H](CC(C)C)NC(=O)[C@H](CCC(N)=O)NC(=O)[C@H](CC)NC(=O)[C@H](CC(C)C)NC(=O)[C@@H](NC(=O)[C@H](CCCCN)NC(=O)[C@H](CCCNC(=N)N)NC(=O)[C@H](Cc1ccc(OC)cc1)NC(=O)[C@H](Cc1c[nH]cn1)NC(=O)[C@H](CC(N)=O)NC(=O)[C@@H](NC(=O)[C@H](Cc1ccc(Cl)cc1)NC(=O)[C@@H](NC(=O)[C@H](C)NC(=O)[C@H](CC(=O)O)NC(=O)[C@@H](CCCNC(=N)N)NC(=O)[C@H](Cc1ccc(O)cc1)NC(=O)Cc1ccccc1)[C@@H](C)CC)[C@@H](C)O)C(C)C)[C@@H](C)CC)C(=O)N[C@H](CCCNC(=N)N)C(=O)N[C@@H](CCCCNC(=N)N)C(N)=O [Peptide 69, [PhAc-Tyr^1, D-Arg^2, Phe(pCl)^6, His^9, Tyr(Me)^10, Abu^15, Nle^27, D-Arg^28, Har^29]hGH-RH(1-29)NH2] (PhAc-Y[dR]DAI[Phe(4-Cl)]TNHY(Me)RKVL[Abu]QLSARKLLQDI[Nle][dR][hArg]-NH2) | 9 % of control | 12 % of control | 18 % of control | 18 % of control | 25 % of control | extremely high binding affinities |  |  |  |  |  |  |  | high endocrine antagonistic potencies |  |

Reference: US7452865B2, “Antagonistic analogs of GH RH (2003)” (The Administrare's of the Tulane Educational Fund, priority 2004, dated 2008)
